# Source: publication PMC6906472, “Purification and biological activity of natural variants synthesized by tridecaptin M gene cluster and in vitro drug-kinetics of this antibiotic class” (Scientific Reports, 2019)
# Square brackets hold non-standard residues; d marks the D form. Peptide text beside a SMILES is read from it. * marks the point of attachment. d(aIle) = CC[C@H](C)[C@@H](N)C(=O)O; X1 = CC[C@H](C)CCCCC(=O)*; dDab = NCC[C@@H](N)C(=O)O; Dab = NCC[C@H](N)C(=O)O
# Columns and labels:
# K. pneumoniae GMCH 15 [1] = test system: K. pneumoniae GMCH 15
# Description: (§1) MICs for all the compounds were determined by broth microdilution assay, according to CLSI guidelines[16] as described previously. Haemolysis experiments were performed with fresh rabbit RBCs[11]. All the compounds were tested at a concentration of 128 µg/ml. To obtain rabbit blood, the experiments and the protocols were in accordance with the ethical standards of the Institutional Animal Ethics Committee (IAEC) of the Institute of Microbial Technology approved (Approval no. IAEC/17/11) by Committee for the Purpose of Control And Supervision of Experiments on Animals (CPCSEA, Government of India).
# [2] = test system: K. pneumoniae ATCC 700603
# Description: as §1
# [3] = test system: Proteus mirabilis MTCC 1429
# Description: as §1
# K. pneumoniae P3R (M1-R) = settings: broth microdilution, CLSI guidelines; M1-resistant mutant of ATCC 700603
# Description: as §1
# P. aeruginosa ATCC 27853 [4] = settings: ATCC 27853
# Description: as §1
# [5] = test system: K. pneumoniae AH-3 (Col-R)
# Description: as §1
# [6] = test system: K. pneumoniae AH-16 (Col-R)
# Description: as §1
# [7] = test system: Serratia marcescens MTCC 97
# Description: as §1
# K. pneumoniae GMCH 13 [8] = test system: K. pneumoniae GMCH 13
# Description: as §1
# E. coli CF-23 (mcr-1) = test system: E. coli CF-23 (mcr-1)
# Description: as §1
# A. baumannii ATCC 19606 [9] = settings: ATCC 19606
# Description: as §1
# K. pneumoniae GMCH 15 [10] = experiment: microbe, parasite or virus in culture; settings: GMCH 15
# Description: (§2) Acinetobacter baumannii ATCC 19606, Pseudomonas aeruginosa ATCC 27853, K. pneumoniae ATCC 700603, K. pneumoniae P3R, K. pneumoniae GMCH 13 and K. pneumoniae GMCH 15 were grown in CA-MHB and adjusted to ~4 × 10^5 CFU/ml. 100 µl of fresh CA-MHB containing carbonyl cyanide m-chlorophenyl hydrazine (CCCP) or phenylalanine-arginine beta-naphthylamide (PAβN) (at a final concentration of their 1/4th of MIC or 1/8th of MIC) was added to the wells of a 96-well flat bottom plate. Tridecaptin M was diluted in a 2-fold manner. 100 µl of culture was added and the plates were incubated for 16 to 18 h at 37 °C and observed for MICs. The fold modulation in MICs of tridecaptin M was calculated by comparing the results in the presence or absence of CCCP and PAβN.
# P. aeruginosa ATCC 27853 [11] = experiment: microbe, parasite or virus in culture; settings: ATCC 27853
# Description: as §2
# K. pneumoniae GMCH 13 [12] = experiment: microbe, parasite or virus in culture; settings: GMCH 13
# Description: as §2
# [13] = test system: K. pneumoniae P3R (Tri-M Resistant); experiment: microbe, parasite or virus in culture
# Description: as §2
# A. baumannii ATCC 19606 [14] = experiment: microbe, parasite or virus in culture; settings: ATCC 19606
# Description: as §2
structure (smiles),measurement,setting,value
"CC[C@H](C)CCCCC(=O)NCC(=O)N[C@H](CCN)C(=O)NCC(=O)N[C@H](CO)C(=O)N[C@H](Cc1c[nH]c2ccccc12)C(=O)N[C@@H](CO)C(=O)N[C@@H](CCN)C(=O)N[C@H](CCN)C(=O)N[C@H](C(=O)N[C@@H](CCC(=O)O)C(=O)N[C@H](C(=O)N[C@@H](C(=O)N[C@@H](CO)C(=O)O)[C@@H](C)CC)[C@@H](C)CC)[C@@H](C)CC [M1, tridecaptin M] (X1-G[dDab]G[dS][dW]S[Dab][dDab]IEI[d(aIle)]S-OH)",Peptide MIC,K. pneumoniae GMCH 15 [1],16 µg/mL
same,Peptide MIC,[2],4 µg/mL
same,Peptide MIC,[3],>16 µg/mL
same,Peptide MIC,K. pneumoniae P3R (M1-R),64 µg/mL
same,Peptide MIC,P. aeruginosa ATCC 27853 [4],>128 µg/mL
same,Peptide MIC,[5],4 µg/mL
same,Peptide MIC,[6],4 µg/mL
same,Peptide MIC,[7],8 µg/mL
same,Peptide MIC,K. pneumoniae GMCH 13 [8],8 µg/mL
same,Peptide MIC,E. coli CF-23 (mcr-1),4 µg/mL
same,Peptide MIC,A. baumannii ATCC 19606 [9],64 µg/mL
same,Intrinsic Activity; MIC,K. pneumoniae GMCH 15 [10],16 µg/mL
same,MIC of peptide in the presence of PAβN,K. pneumoniae GMCH 15 [10],16 µg/mL
same,Intrinsic Activity; MIC,P. aeruginosa ATCC 27853 [11],256 µg/mL
same,MIC of peptide in the presence of CCCP,P. aeruginosa ATCC 27853 [11],256 µg/mL
same,MIC of peptide in the presence of PAβN,P. aeruginosa ATCC 27853 [11],256 µg/mL
same,FICI,K. pneumoniae GMCH 13 [12],0.75
same,Intrinsic Activity; MIC,K. pneumoniae GMCH 13 [12],8 µg/mL
same,MIC of peptide in the presence of PAβN,K. pneumoniae GMCH 13 [12],8 µg/mL
same,MIC of peptide in the presence of CCCP,[13]; CCCP at 1/4th MIC,64 µg/mL
same,MIC of peptide in the presence of CCCP,[13]; CCCP at 1/8th MIC,64 µg/mL
same,MIC of peptide in the presence of PAβN,[13]; PAβN at 1/4th MIC,64 µg/mL
same,MIC of peptide in the presence of PAβN,[13]; PAβN at 1/8th MIC,64 µg/mL
same,Intrinsic Activity; MIC,"[13]; ~4 × 10^5 CFU/ml, CA-MHB, 16 to 18 h, 37 °C",64 µg/mL
same,Intrinsic Activity; MIC,A. baumannii ATCC 19606 [14],64 µg/mL
same,MIC of peptide in the presence of PAβN,A. baumannii ATCC 19606 [14],64 µg/mL
